Test results reported in publication PMC4657044, “Live detection and purification of cells based on the expression of a histone chaperone, HIRA, using a binding peptide” (Scientific Reports, 2015).
No end group written: not given here.

What was measured:
[1] = tested on: HSC-4 cells and Hira-/- ES cells; assay: Live sorting of a mixture of HSC-4 cells and Hira-/- ES cells; format: cell-based
From the text: Since TM2-FITC binds to its target in live cells without any permeabilizing agents, we sought the possibility of its use in live sorting. We tried to separate HIRA expressing cells from HIRA deficient cells using FACS. We took oral cancer cell line HSC-4, which expresses HIRA, and mixed with Hira^−/− ES cells in 2.5:1 ratio. […] These cells were sorted out as positive and negative populations with gates P2 and P3 and were allowed to grow for 5 days in 8-well chamber slide. The DIC images confirm that the positive population was HSC-4 keratinocytes and the negative population was ES cells (Fig. 3b). Again wild type ES cells and Hira^−/− ES cells were mixed in 1:1 ratio and sorted as mentioned before. […] These cells grown in slide chambers were stained with antibodies for HIRA and an epithelial marker, CD44. […] The cross contamination in P3 population for the mixture of null and wild type ES cells was <4%. Since 5 days of growth in ES culture medium might give a selection advantage for ES cells over the contaminating keratinocytes, another FACS was performed to check the false positivity and negativity. HSC-4 cells and Hira^−/− ES cells were stained alone or in mixture with the TM2-FITC and CD44-PE and analyzed by FACS. […] The positive population was analyzed for possible cross contamination for ES cells as shown by CD44 negativity. […]

[2] = tested on: wild type and Hira-/- ES cells; assay: Live uptake by ES cells under the confocal microscope; format: cell-based, mouse; details: live wild type and Hira-/- ES cells grown in confocal dishes, TM2-FITC; fluorescence microscopy
From the text: (§1) TM2-FITC was used for FACS analyses with and without permeabilization of fixed HSC-4 cells using saponin. […] To check whether it can be used for live sorting, live HSC-4 cells were stained with the peptide and analyzed by FACS. […] The live uptake of TM2-FITC by HSC-4 monolayer cells was visualized under microscope immediately after washing off the staining solution (Fig. 2c).
(a) The FACS profile of fixed HSC-4 cells stained with TM2-FITC. (b) Live cells were stained with the TM2-FITC as described under methods and analyzed in FACS Aria II. (c) HSC-4 cells were grown in confocal dishes and incubated with TM2-FITC diluted in PBS for 1 h. Prior to imaging the cells were briefly washed and imaged (d) ES cells were grown in confocal dishes and stained using TM2-FITC. Hoechst 33342 dye was used to visualize the nucleus. The scale bar represents 10 μm.

[3] = tested on: HSC-4 cells and Hira-/- ES cells; assay: FACS of live HSC-4 / Hira-/- ES cell mixture dual stained with TM2-FITC and CD44-PE; format: cell-based
From the text: (§2) Since TM2-FITC binds to its target in live cells without any permeabilizing agents, we sought the possibility of its use in live sorting. We tried to separate HIRA expressing cells from HIRA deficient cells using FACS. We took oral cancer cell line HSC-4, which expresses HIRA, and mixed with Hira^−/− ES cells in 2.5:1 ratio. […] These cells were sorted out as positive and negative populations with gates P2 and P3 and were allowed to grow for 5 days in 8-well chamber slide. The DIC images confirm that the positive population was HSC-4 keratinocytes and the negative population was ES cells (Fig. 3b). Again wild type ES cells and Hira^−/− ES cells were mixed in 1:1 ratio and sorted as mentioned before. […] These cells grown in slide chambers were stained with antibodies for HIRA and an epithelial marker, CD44. […] The cross contamination in P3 population for the mixture of null and wild type ES cells was <4%. Since 5 days of growth in ES culture medium might give a selection advantage for ES cells over the contaminating keratinocytes, another FACS was performed to check the false positivity and negativity. HSC-4 cells and Hira^−/− ES cells were stained alone or in mixture with the TM2-FITC and CD44-PE and analyzed by FACS. […] The false positivity that we observed in P4 population could be overcome by a stringent gating as we have done in Fig 3. To further ascertain the false positivity in sorting based on TM2-FITC, the mixture of two cell types were separated for HIRA a positivity as shown in Fig. 4d. The positive population was analyzed for possible cross contamination for ES cells as shown by CD44 negativity. […] Comparing the cost of peptide synthesis with antibody development, this method is more cost effective than conventional antibodies. In future, the strategy can be improved by modifications that increases the retention time of the peptide, to ensure more purity. We argue that this approach will have immense use in cell biology, developmental biology and clinical applications.
Figure 4 Specificity of TM2-FITC live sorting. (a) The FACS profiles of live HSC-4 cells and ES cells alone or in a mixture stained with TM2-FITC and CD44-PE. The two populations in P2 and P4 gate were selected for CD44 positivity. (b) Sorted cells were further analyzed for HIRA positivity (c) The dual stained cells were separated for both FITC and PE. The positivity of different populations is marked. (d) The mixture of two cell types were separated for HIRA positivity and the P2 population was further analyzed for CD44 positivity.
(§3) FACS analysis was performed as reported previously. […]

[4] = tested on: HSC-4 cells; assay: FACS of live HSC-4 cells stained with the peptide; format: cell-based, human
Procedure: as §1
(§4) FACS analysis was performed as reported previously. Monolayer cells were trypsinized and fixed using 4% PFA, and peptide labeled with FITC (10 μM) was added to the cells in presence or absence of 0.3% saponin in a buffer containing 1%FBS, and incubated for one hour at room temperature. For live sorting, the cells were resuspended in 75 μl of PBS containing the peptide for one hour. Cells were diluted with 200 μl of PBS and sorted immediately using FACS Aria II.

[5] = molecular target: T1, HIRA (Homo sapiens, UniProt P54198); assay: Immunofluorescence of fixed and permeabilized HSC-4 cells; format: cell-based; details: fixed (4% PFA) and permeabilized (0.3% Triton X-100) HSC-4 cells; overnight at 4 °C; confocal microscopy
T1 construct: We took oral cancer cell line HSC-4, which expresses HIRA; endogenous in cells; host or cells: HSC-4
T1 sequence (P54198 whole entry): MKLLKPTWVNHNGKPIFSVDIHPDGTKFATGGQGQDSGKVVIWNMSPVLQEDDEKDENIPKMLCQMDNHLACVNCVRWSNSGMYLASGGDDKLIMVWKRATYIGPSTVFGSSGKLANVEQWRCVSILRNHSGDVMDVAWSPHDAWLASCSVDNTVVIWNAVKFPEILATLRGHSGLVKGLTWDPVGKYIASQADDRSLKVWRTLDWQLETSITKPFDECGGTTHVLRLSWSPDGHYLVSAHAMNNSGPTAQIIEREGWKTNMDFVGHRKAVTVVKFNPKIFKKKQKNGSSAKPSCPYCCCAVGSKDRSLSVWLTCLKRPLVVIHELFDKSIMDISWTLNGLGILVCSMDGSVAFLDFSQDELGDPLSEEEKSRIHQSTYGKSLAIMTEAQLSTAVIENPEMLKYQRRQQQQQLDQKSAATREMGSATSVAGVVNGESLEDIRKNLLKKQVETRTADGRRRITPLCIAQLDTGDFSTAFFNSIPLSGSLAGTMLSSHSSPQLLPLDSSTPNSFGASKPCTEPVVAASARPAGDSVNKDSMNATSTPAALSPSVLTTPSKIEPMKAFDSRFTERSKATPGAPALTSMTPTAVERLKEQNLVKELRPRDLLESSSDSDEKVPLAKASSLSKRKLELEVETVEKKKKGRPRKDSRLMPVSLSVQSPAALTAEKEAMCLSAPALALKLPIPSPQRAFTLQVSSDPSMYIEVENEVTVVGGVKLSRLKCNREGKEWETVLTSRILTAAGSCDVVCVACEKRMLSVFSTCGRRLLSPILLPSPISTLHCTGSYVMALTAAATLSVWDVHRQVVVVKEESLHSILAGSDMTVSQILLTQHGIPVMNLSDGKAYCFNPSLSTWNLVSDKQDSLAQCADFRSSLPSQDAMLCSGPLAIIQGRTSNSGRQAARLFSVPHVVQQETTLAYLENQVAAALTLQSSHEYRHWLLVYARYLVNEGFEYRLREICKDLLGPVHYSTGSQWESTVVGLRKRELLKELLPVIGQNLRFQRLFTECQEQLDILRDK
From the text: (§5) One of the problems that could emerge in a peptide-based detection is its specificity. To confirm whether the peptide detects correct molecule, we performed a western blot using biotin-tagged peptide, a novel approach for showing specificity. TM2 was tagged with biotin and purified by size exclusion chromatography, and was used instead of primary antibody in western blot. The blot was developed with streptavidin-HRP and ECL to get a single band at 110 kDa, as observed in antibody-based detection (Fig. 1b). The peptide was tagged to FITC and was used for immunofluorescence in comparison with HIRA antibody. The staining pattern in fixed and permeabilized oral cancer cell line HSC-4 was similar in both TM2-FITC and HIRA antibody (Fig. 1c), confirming the specificity. To rule out nonspecific binding of peptide we selected HIRA-knock out cells. So, we analyzed the specificity using mouse W9.5 (wild type) and Hira^−/− W9.5 ES cells, reported earlier. Since we designed peptides using human sequence, and the cell line is of mouse origin we compared the sequence similarity of binding region of both HIRA and H2B across the two species. […] So we anticipated that the peptide will recognize mouse HIRA as well.
(§6) Monolayer cells seeded in micro slide chamber were fixed using 4% paraformadehyde (PFA), permeabilized with 0.3% Triton X-100/PBS (PBST) and blocked with 2% serum as described previously. […]

[6] = molecular target: T2, HIRA (Mus musculus, UniProt Q61666); assay: Immunofluorescence of fixed and permeabilized wild type and Hira-/- W9.5 ES cells; format: cell-based; details: fixed and permeabilized mouse W9.5 wild type versus Hira-/- ES cells; confocal microscopy
T2 construct: endogenous in cells; host or cells: mouse W9.5 ES cells (wild type)
T2 sequence (Q61666 whole entry): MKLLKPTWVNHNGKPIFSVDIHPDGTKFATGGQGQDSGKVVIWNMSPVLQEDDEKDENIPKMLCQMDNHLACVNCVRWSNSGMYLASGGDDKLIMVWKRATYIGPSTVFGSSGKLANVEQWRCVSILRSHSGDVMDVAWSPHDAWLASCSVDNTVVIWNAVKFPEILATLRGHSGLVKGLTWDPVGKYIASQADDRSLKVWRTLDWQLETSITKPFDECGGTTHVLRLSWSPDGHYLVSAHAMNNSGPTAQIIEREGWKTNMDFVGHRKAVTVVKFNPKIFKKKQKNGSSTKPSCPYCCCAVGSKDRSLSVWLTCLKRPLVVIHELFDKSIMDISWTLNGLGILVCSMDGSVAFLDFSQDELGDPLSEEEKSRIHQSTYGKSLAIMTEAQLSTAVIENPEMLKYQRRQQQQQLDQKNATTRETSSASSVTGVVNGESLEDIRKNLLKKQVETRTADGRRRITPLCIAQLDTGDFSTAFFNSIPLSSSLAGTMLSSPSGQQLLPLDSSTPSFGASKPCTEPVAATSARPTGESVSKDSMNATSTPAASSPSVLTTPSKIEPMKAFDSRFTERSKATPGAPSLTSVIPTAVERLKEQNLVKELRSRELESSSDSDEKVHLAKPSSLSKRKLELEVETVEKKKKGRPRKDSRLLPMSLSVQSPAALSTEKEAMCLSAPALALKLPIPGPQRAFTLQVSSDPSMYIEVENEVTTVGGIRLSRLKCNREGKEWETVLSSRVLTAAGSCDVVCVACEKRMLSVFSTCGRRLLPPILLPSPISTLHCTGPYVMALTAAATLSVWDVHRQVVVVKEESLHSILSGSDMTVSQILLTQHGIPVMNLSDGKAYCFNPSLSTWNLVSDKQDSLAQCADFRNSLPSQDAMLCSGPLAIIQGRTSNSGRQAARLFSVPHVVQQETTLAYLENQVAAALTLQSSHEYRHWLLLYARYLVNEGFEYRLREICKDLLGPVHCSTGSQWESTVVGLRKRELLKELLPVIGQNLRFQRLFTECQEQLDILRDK
From the text: as §5, §6

[7] = tested on: wild type ES cells and Hira-/- ES cells; assay: Live sorting of a mixture of wild type and Hira-/- ES cells; format: cell-based, mouse
From the text: as §2, §3

[8] = tested on: HSC-4 cells; assay: FACS of fixed HSC-4 cells with and without saponin permeabilization; format: cell-based, human; details: fixed (4% PFA) HSC-4 cells, 10 μM FITC-labelled peptide, with or without 0.3% saponin, buffer with 1% FBS, 1 h at room temperature; FACS fluorescence
Procedure: as §1, §4

[9] = mixture of live HSC-4 and Hira-/- ES cells, TM2-FITC and CD44-PE, Fig. 4b

Row | staining pattern compared with HIRA antibody [5] | staining of HIRA-/- ES cells (specificity) [6] | Substance | HIRA positive cells observed (gate P2) ([1]; live HSC-4 and Hira-/- ES cells mixed 2.5:1 (2.5x10^5 / 1x10^5), expected 71.4%, FACS) [%] | contamination of sorted P3 (negative) population by CD44+HIRA+ cells ([1]; sorted cells grown 5 days in 8-well chamber slide, stained with HIRA and CD44 antibodies) [%] | live uptake pattern in ES cells [2] | false positive ratio in dual staining ([3]; dual stained cells separated for both FITC and PE, Fig. 4c) [%] | HIRA positivity of CD44+ population (P2) [3, 9] [%] | false HIRA positivity of Hira-/- ES cells (CD44 negative, P4) [3, 9] [%] | false positive ratio (CD44 negative cells in the HIRA positive population) ([3]; mixture separated for HIRA positivity, P2 population analysed for CD44, Fig. 4d) [%] | signal after washing with peptide free solution ([4]; live HSC-4 cells stained with the peptide, FACS) | cells positive for HIRA ([4]; live HSC-4 cells, no permeabilization, peptide in 75 μl PBS for 1 h, diluted with 200 μl PBS, FACS Aria II) [%] | viability of sorted ES cells ([7]; cells sorted live with TM2-FITC, grown 5 days in 8-well chamber slide, DIC images) | observed ratio of positivity (gate P2) ([7]; live wild type ES and Hira-/- ES cells mixed 1:1 (1x10^5 / 1x10^5), expected 50%, FACS) [%] | cross contamination in sorted P3 (negative) population ([7]; mixture of null and wild type ES cells, sorted cells grown 5 days, stained with HIRA antibody) [%] | cell permeability / internalization [8]
1 | similar | absence of staining | TM2-FITC: TM2 peptide tagged to FITC, used for immunofluorescence, FACS and live sorting (PKKGSKKAVTKAQKKDGA-NH2; also: FITC, site not given here) | 65.7 | < 1 | limited to the wild type ES cells | 0.6 | 82 | 2.7 | 0.9 | loss of the signal | 85 | viable and formed colonies in 5 days | 49.6 | < 4 | internalized without permeabilization
2 |  |  | PKKGSKKAVTKAQKKDGA-NH2 [TM2] |  |  |  |  |  |  |  |  |  |  |  |  | cell permeable
